Results reported in patent US5051253A, “Use of polyacrylates to reduce proteolytic activity in the human intestinal tract” (Reckitt & Colman Products Limited, priority 1988, dated 1991).
Read-outs that look alike come from different tables or passages of the source.

Test system: faecal proteolytic activity
Experiment: Human faecal proteolytic activity (in-vitro), succinyl albumin substrate
Assay type: biochemical
Experimental: Human faecal extracts (from asymptomatic volunteers) were obtained by suspending samples of stool in 4 volumes of M/15M KH2 PO4 /Na2 HPO4 pH 7.5 containing 50 mM NaCl and centrifuging at 10,000 g for 15 minutes at 4° C. The supernatant was retained as the faecal extract.
Proteolytic activity was measured using a modification of the method of Lin et al, J.Biol.Chem. 244 (4), 789-793 (1969), i.e. a sensitive trinitrobenzene sulphonic acid assay for formation of new peptide N-terminals using succinyl albumin as substrate. Faecal extract containing one unit of protease activity (equivalent to 1 μg trypsin) was mixed with 0.5 ml buffer (M/15 phosphate pH 7.5) or inhibitor. Substrate (0.5 ml, 8 mgml^-1 succinyl albumin) was added to start the reaction and samples were incubated for 30 minutes at 37° C. Four per cent (w/v) sodium bicarbonate (0.5 ml) and 0.05% (w/v) trinitrobenzene sulphonic acid were added to trinitrophenylate the free amino groups formed and samples were incubated at 50° C. for 10 minutes to develop colour.
10% (w/v) Sodium dodecyl sulphate (0.5 ml) and 1M HCl (0.25 ml) were added to complete the reaction. Absorbance at 340 nm was measured. All samples were compared with heat inactivated faecal extract controls (100° C., 10 minutes).
A linear increase in N-terminals formed by proteolytic cleavage of peptide bonds was found over the first 30 minutes of digestion. […] Proteolytic activity in faecal extracts against succinyl albumin was inhibited by soybean trypsin inhibitor (1 μg) and P.M.S.F. (1 mM) but not by iodoacetamide (50 mM) or Na2 E.D.T.A. (10 mM). In view of this, levels of faecal protease activity were subsequently quantified as equivalents of porcine pancreatic trypsin activity by weight.

With `O=C(O)CN(CCN(CC(=O)O)CC(=O)O)CC(=O)O` [Na2 E.D.T.A.] the “Inhibition of proteolytic activity in faecal extracts against succinyl albumin” value (“Inhibition of proteolytic activity” below) was “not”.

For `O=S(=O)(F)Cc1ccccc1` [P.M.S.F., phenylmethylsulphonyl fluoride], the “Inhibition of proteolytic activity” value (1 mM) was “inhibited”.

With `NC(=O)CI` [iodoacetamide] the “Inhibition of proteolytic activity” value (50 mM) was “not”.

B1: soybean trypsin inhibitor (protein, UniProt P01070 25-205, looked up)
Trypsin inhibitor A: DFVLDNEGNPLENGGTYYILSDITAFGGIRAAPTGNERCPLTVVQSRNELDKGIGTIISSPYRIRFIAEGHPLSLKFDSFAVIMLCVGIPTEWSVVEDLPEGPAVKIGENKDAMDGWFRLERVSDDEFNNYKLVFCPQQAEDDKCGDIGISIDHDDGTRRLVVSKNKPLVVQFQKLDKESL
For B1, the “Inhibition of proteolytic activity” value (1 μg) was “inhibited”.
